# Tests used:
# [1] = tested on: Daudi human Burkitt’s Lymphoma cell line; assay: Study 7: Daudi xenograft human Burkitt's lymphoma subcutaneous tumor model (daratumumab or AB79); assay type: in vivo, CB17 SCID mice; conditions: for GRI%: vs vehicle; for Tumor growth relative to vehicle-treated tumors (pairwise comparison): each agent 7.5 mg/kg BIW, I-263a p = 0.105, daratumumab p < 0.001, AB79 p = 0.002, both combinations p < 0.001, data up to Day 22
# Description: (§1) Low tumor volumes can cause problems with the data analysis, so all measurements below 25 cubic mm (including 0 values) were excluded from the analysis. After this exclusion step, the tumor volume was assumed to follow an exponential growth model. More specifically, for a given animal and treatment group,
# (§2) Pairwise comparisons were performed, where the mean growth rates were compared for various pairs of treatment conditions. The results were summarized using the growth rate inhibition (GRI). Suppose µT and µC are the mean tumor growth rates for the treatment and reference groups, respectively. Define
# (§3) Here, µAB, µA, µB, and µControl are the mean growth rates for the combination, drug A, drug B, and control groups, respectively. As before, µv is the mean tumor growth rate for the vehicle group, which in most cases is the same as the control group. The standard error of the synergy score was calculated as the square root of the sum of squared standard errors across the four groups. The degrees of freedom were estimated using the Welch-Satterthwaite equation. A hypothesis test was performed to determine if the synergy score differed from 0. P-values were calculated by dividing the synergy score by its standard error and tested against a t-distribution (two-tailed) with the above-calculated degrees of freedom. A P value of less than 0.05 is statistically significant.
# (§4) The combination results can be interpreted as follows. Statistically significant negative synergy scores indicate a synergistic combination (“Syn.”). Statistically significant positive synergy scores indicate a sub-additive combination (“Sub-add.”) when the combination performs better (i.e. has a lower growth rate) than the best performing single agent. Statistically significant positive synergy scores indicate an antagonistic combination (“Antag.”) when the combination performs worse than the best performing single agent. Scores that are not statistically significant should be considered additive (“Add.”).
# Daudi is a human Burkitt’s Lymphoma cell line. A Daudi human xenograft tumor model was generated by subcutaneous inoculation with 2.0 × 10^6 Daudi cells (cell suspension) in 7 weeks old female CB17 SCID mice (Charles River Laboratories, 251 Ballardvale St., Wilmington, MA) in the flank. When the mean tumor volume reached approximately 110 mm3, the animals were randomized into one vehicle control and six treatment groups (n=8/group). Mice were then dosed with 20% HPβCD or Compound I-263a and/or daratumumab or AB79 over a 21-day period. Tumor growth and body weight were measured twice per week during the treatment and post-treatment periods, and mice were humanely euthanized once they had reached their humane endpoint.
# A 0.75 mg/mL stock solution of I-263a was formulated weekly in 20% HPβCD and administered intravenously (IV) based on an average body weight using a 0.2 mL dosing volume. Final doses of I-263a received were 7.5 mg/kg. I-263a was administered on a BIW schedule for 3 weeks (Days 1, 4, 8, 11, 15, and 18). Daratumumab (anti-CD38 antibody) (Myoderm Medical Supplies, 48 E Main St., Norristown, PA 19401) was purchased at the beginning of the study and stored at 4° C. according to manufacturer’s instructions. Final dose of daratumumab received was 7.5 mg/kg based on average body weight. Daratumumab was administered intraperitoneally (IP) using a 0.1 mL dosing volume, on a BIW schedule for 3 weeks (Days, 1, 4, 8, 11, 15, and 18). AB79 was formulated on the day of dosing in 0.9% saline and administered intraperitoneally (IP) using a 0.1 mL dosing volume, on a BIW schedule for 3 weeks (Days, 1, 4, 8, 11, 15, and 18). Final dose of AB79 was 7.5 mg/kg based on average body weight.
# Tumors were measured twice weekly using Vernier calipers. Tumor volumes were calculated using standard equation: V = W2 × L/2, where V = volume, W = width, and L = length for the tumor. […]
# SUMO-activating enzyme = SUMO-activating enzyme (Homo sapiens, UniProt Q9UBT2); assay: Biochemical assays of SUMO-activating enzyme inhibition
# [2] = tested on: SUMO-activating enzyme and SUMOylation; assay: Inhibition of SUMO-activating enzyme and SUMOylation in cultured tumor cell lines; assay type: cell-based; conditions: cultured mouse and human tumor cell lines
# [3] = tested on: NCI-H929 human multiple myeloma cell line; assay: Study 5: NCI-H929 xenograft human multiple myeloma subcutaneous tumor model; assay type: in vivo, SCID mice; conditions: for Tumor growth compared to vehicle (pairwise comparison): I-263a 7.5 mg/kg BIW 2 weeks (p > 0.05), daratumumab 2.5, 7.5 or 20 mg/kg BIW 2 weeks alone or combined with I-263a (p < 0.001); for GRI%: vs vehicle
# Description: as §1, §2, §3, §4
# NCI-H929 is a human multiple myeloma cell line. A NCI-H929 human xenograft tumor model was generated by subcutaneous inoculation with 1.0 × 10^7 NCI-H929 cells (cell suspension) in 7 weeks old female SCID mice (Vital River Laboratory Animal Technology Co., Ltd, Beijing, China) in the flank. When the mean tumor volume reached approximately 180 mm^3, the animals were randomized into one vehicle control and seven treatment groups (n=10/group). Mice were then dosed with 20% HPβCD or Compound I-263a or daratumumab over a 14-day period. Tumor growth and body weight were measured twice per week during the treatment and post-treatment periods, and mice were humanely euthanized once they had reached their humane endpoint.
# A 1.5 mg/mL stock solution of I-263a was formulated weekly in 20% HPβCD and administered IV based on exact animal body weight on each day of treatment, using a dosing volume of 5 mL/kg body weight. Final dose I-263a received was 7.5 mg/kg. I-263a was administered on a BIW schedule for 2 weeks (Days 0, 3, 7, and 10). Daratumumab (anti-CD38 antibody) (Janssen Biotech, Inc., Horsham, PA) was stored at 4° C. according to manufacturer’s instructions. Final dose daratumumab received was 2.5 mg/kg, 7.5 mg/kg, and 20 mg/kg based on average body weight. Daratumumab was administered intraperitoneally (IP) using a 0.1 mL dosing volume, on a BIW schedule for 2 weeks (Days 0, 3, 7, and 10).
# Tumors were measured twice weekly using Vernier calipers. Tumor volumes were calculated using standard equation: V = W^2 × L/2, where V = volume, W = width, and L = length for the tumor. When mean tumor volumes reached approximately 180 mm^3, mice were randomized into control and treatment groups. Mice were randomized into 8 groups (n=8/group) and dosed with vehicle (20% HPβCD), I-263a, daratumumab, or the combination of I-263a plus daratumumab at doses and schedules as described above. Tumor size and body weight were measured twice a week for the duration of the study. […]
# Chain of SUMO-activating enzyme (Q9UBT2 whole entry): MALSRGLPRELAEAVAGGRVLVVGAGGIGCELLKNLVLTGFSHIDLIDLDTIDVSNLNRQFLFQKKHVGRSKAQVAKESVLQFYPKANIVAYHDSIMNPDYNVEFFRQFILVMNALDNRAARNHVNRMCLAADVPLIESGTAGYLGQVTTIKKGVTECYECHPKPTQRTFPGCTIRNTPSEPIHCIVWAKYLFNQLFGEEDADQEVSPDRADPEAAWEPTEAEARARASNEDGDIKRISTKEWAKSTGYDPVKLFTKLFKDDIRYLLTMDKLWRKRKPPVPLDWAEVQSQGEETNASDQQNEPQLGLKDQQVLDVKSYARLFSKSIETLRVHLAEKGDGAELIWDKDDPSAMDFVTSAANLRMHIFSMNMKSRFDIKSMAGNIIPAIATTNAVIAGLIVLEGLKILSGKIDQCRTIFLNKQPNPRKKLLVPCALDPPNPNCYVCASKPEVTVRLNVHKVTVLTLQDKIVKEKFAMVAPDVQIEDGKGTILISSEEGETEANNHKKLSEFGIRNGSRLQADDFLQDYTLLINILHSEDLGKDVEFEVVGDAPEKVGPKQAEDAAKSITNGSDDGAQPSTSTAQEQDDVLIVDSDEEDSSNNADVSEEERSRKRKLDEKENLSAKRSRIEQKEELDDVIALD
# Chain of SUMO-activating enzyme (Q9UBE0 whole entry partner): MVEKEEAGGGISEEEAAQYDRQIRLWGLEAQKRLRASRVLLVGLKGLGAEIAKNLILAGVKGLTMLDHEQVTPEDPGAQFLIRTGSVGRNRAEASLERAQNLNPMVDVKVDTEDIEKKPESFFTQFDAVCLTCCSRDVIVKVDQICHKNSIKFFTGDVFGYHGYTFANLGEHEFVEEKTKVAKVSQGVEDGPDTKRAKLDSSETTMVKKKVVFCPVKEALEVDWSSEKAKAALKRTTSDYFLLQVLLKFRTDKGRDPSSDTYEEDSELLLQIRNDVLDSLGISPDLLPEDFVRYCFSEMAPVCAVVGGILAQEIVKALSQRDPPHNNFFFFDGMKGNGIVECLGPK
# Chain of SUMO-activating enzyme (P63165 1-97 partner limits assumed): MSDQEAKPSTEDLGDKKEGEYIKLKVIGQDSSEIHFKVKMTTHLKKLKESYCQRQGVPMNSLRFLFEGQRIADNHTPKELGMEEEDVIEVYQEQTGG
Inhibition of SUMO-activating enzyme activity (SUMO-activating enzyme; mechanism-based inhibitor forming a covalent adduct with SUMO),"Selectivity for SUMO-activating enzyme (SUMO-activating enzyme; over ubiquitin-activating enzyme, Nedd8-activating enzyme, and autophagy related 7 enzyme)",Compound,Tumor Volume on Day 22 (±SEM) ([1]; I-263a 7.5 mg/kg BIW IV),GRI% ([1]; I-263a 7.5 mg/kg BIW IV) [%],Tumor growth relative to vehicle-treated tumors (pairwise comparison) [1],Inhibition of SUMO-activating enzyme and SUMOylation in cells [2],Tumor growth compared to vehicle (pairwise comparison) [3],Tumor volume on Day 14 (± SEM) ([3]; I-263a 7.5 mg/kg BIW IV),GRI% ([3]; I-263a 7.5 mg/kg BIW IV) [%],Tumor Volume on Day 22 (±SEM) ([1]; Daratumumab 7.5 mg/kg BIW IP),GRI% ([1]; Daratumumab 7.5 mg/kg BIW IP) [%],Tumor volume on Day 14 (± SEM) ([3]; Daratumumab 2.5 mg/kg BIW IP),GRI% ([3]; Daratumumab 2.5 mg/kg BIW IP) [%],Tumor volume on Day 14 (± SEM) ([3]; Daratumumab 7.5 mg/kg BIW IP),GRI% ([3]; Daratumumab 7.5 mg/kg BIW IP) [%],Tumor volume on Day 14 (± SEM) ([3]; Daratumumab 20 mg/kg BIW IP),GRI% ([3]; Daratumumab 20 mg/kg BIW IP) [%]
potently inhibits enzyme activity,Strong selectivity,"Cc1sc(C(=O)c2cncnc2N[C@@H]2C[C@H](COS(N)(=O)=O)[C@@H](O)C2)cc1[C@@H]1NCCc2ccc(Cl)cc21 [Compound I-263a, [(1R,2S,4R)-4-{[5-({4-[(1R)-7-chloro-1,2,3,4-tetrahydroisoquinolin-1-yl]-5-methyl-2-thienyl}carbonyl)pyrimidin-4-yl]amino}-2-hydroxycyclopentyl]methyl sulfamate]",1305 (±83.6),13,tumor growth inhibition,Selective and potent inhibition,not significantly different from vehicle,1763.8 ± 187.6,6,,,,,,,,
,,Daratumumab: immunoglobulin G1 kappa (IgG1κ) human monoclonal antibody against CD38 antigen,,,tumor growth inhibition,,significantly inhibited tumor growth curves,,,1004.9 (±97.1),31,999.5 ± 187.7,37,838.3 ± 142.8,45,656.2 ± 127.2,54

# From patent US20230218618A1, “ADMINISTRATION OF SUMO-ACTIVATING ENZYME INHIBITOR AND ANTI-CD38 ANTIBODIES” (MILLENNIUM PHARMACEUTICALS, INC., priority 2020, published 2023)
